Source: patent US11744877B2, “Method for permeabilizing tumor vasculature using a tumor vasculature permeabilizing molecule to improve access of a therapeutic or diagnostic agent to a tumor” (OXFORD UNIVERSITY INNOVATION LIMITED, priority 2010, dated 2023)

Experiment: Accumulation of intravascularly injected oncolytic adenovirus in EL4 tumours (hexon staining, qPCR of viral DNA)
Format: in vivo, SCID-beige female mice
Settings: 1 μg TNF; tumours 100 mm^3; versus vehicle; FIG. 1B
Method: All adenoviruses were grown in 293 cells, and purified by double banding in CsCl gradients with Benzonase treatment after the first banding. Viral particle (VP) number was determined by measuring DNA content, using a PicoGreen assay (Invitrogen, Carlsbad, Calif.) (Murakami and McCaman, 1999, Anal Biochem; 274(2):283-8).
EL4 cells (2×10^6) were injected subcutaneously and allowed to form tumours in the left flank of 4- to 6-week-old SCID-beige female mice. Evans Blue was administered intravenously to compare permeability in 1 μg TNFα-treated animals versus controls. Oncolytic adenovirus was injected intravascularly when tumours were 100 mm^3 and relative distribution was assessed by hexon staining and quantitative polymerase chain reaction measurement of viral DNA.
To assess distribution of adenovirus in 1 μg TNF-treated animals versus controls, oncolytic adenovirus was injected intravascularly when tumours were 100 mm^3 and the relative distribution was assessed by hexon staining and quantitative polymerase chain reaction measurement of viral DNA. Three controls were also used.
Virus accumulation in the tumour was compared to that in the liver and in the spleen.

With “Angiotensin II (DRVYIHPF; Angiotensin-2; UniProt P01019 25-32, looked up) [control reported to increase tumour vessel permeability]” the “increase in accumulation (uptake) of intravenously administered adenovirus particles in tumours” value was “increases were small compared to TNF”.

In the case of `COc1cc(/C=C\c2ccc(OC)c(OP(=O)(O)O)c2OP(=O)(O)O)cc(OC)c1OC` [combrestatin (OXI4503), combrestatin], the “increase in accumulation (uptake) of intravenously administered adenovirus particles in tumours” value was “increases were small compared to TNF”.
